PubChem BioAssay AID652030 (The Scripps Research Institute Molecular Screening Center, 2013)
Calls of active or inactive are those of the source.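 How the source made its calls: active means inhibition of 30% or more against both LYPLA2 panels while inhibition against LYPLA1 stays below 30%; inactive means under 30% on either LYPLA2 panel, or 30%+ on LYPLA1.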

Assays:
Assay in all cases: LYPLA2 and LYPLA1 inhibition in proteome, late-stage follow-up, selectivity assay for LYPLA2 selective inhibitor project, cell lysate, gel-based ABPP, FP-Rh fluorescence, mouse brain membrane proteome (AID 652030)
[1] = molecular target: Acyl-protein thioesterase 1 (Mus musculus) (UniProt P97823); conditions: emLYPLA1, at 10 µM, stronger effect = higher value
[2] = molecular target: Acyl-protein thioesterase 2 (Homo sapiens) (UniProt O95372); conditions: rhLYPLA2, at 10 µM, stronger effect = higher value
Sequence of Acyl-protein thioesterase 2 (Homo sapiens) (O95372 whole entry, looked up): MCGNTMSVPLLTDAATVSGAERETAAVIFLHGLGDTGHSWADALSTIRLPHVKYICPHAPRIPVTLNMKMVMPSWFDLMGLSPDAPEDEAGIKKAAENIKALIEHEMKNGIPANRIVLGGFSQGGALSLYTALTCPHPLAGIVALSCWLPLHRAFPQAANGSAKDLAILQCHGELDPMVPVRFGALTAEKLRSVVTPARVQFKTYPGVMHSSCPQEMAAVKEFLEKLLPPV

[3] = molecular target: Acyl-protein thioesterase 2 (Mus musculus) (UniProt Q9WTL7); conditions: emLYPLA2, at 10 µM, stronger effect = higher value

Structure (SMILES)	inhibition [1]	inhibition [2]	inhibition [3]
O=C1Nc2ccc([N+](=O)[O-])cc2OC1CCN1CCN(Cc2ccc3c(c2)OCO3)CC1 (centres undefined)	27% (inactive)	9% (inactive)	21% (inactive)
COc1ccccc1-c1nnc(C2CCN(S(=O)(=O)c3ccc([N+](=O)[O-])cc3)CC2)o1	16% (inactive)	9% (inactive)	5% (inactive)
O=C(Nc1ccc(N2CCN(C(=O)c3ccco3)CC2)c(Cl)c1)c1c(F)c(F)c(F)c(F)c1F	18% (inactive)	5% (inactive)	0% (inactive)
COc1ccc(-n2nc(C(=O)NCC(=O)N3CCN(Cc4ccc5c(c4)OCO5)CC3)c3ccccc3c2=O)cc1OC	0% (inactive)	26% (inactive)	23% (inactive)
COc1ccc(OC)c(-c2cc(C(=O)Nc3c(C)nn(Cc4ccccc4C)c3C)no2)c1	6% (inactive)	8% (inactive)	0% (inactive)
COc1ccc2c(c1)C(=O)[C@H](O)[C@@H](c1ccc(OC)c(Br)c1)O2	23% (inactive)	47%	55%
COc1ccc2c(c1)C(=O)[C@@H](O)[C@H](c1ccc(OC)c(Br)c1)O2	13% (inactive)	20% (inactive)	31%
Cc1ccc(N/C=C(\C#N)c2ccc(OCCCF)cc2)cc1	17% (inactive)	5% (inactive)	13% (inactive)
Cc1ccccc1NC(=O)CN1C(=O)S/C(=C\c2cccn2-c2cccc(C(=O)O)c2)C1=O	0% (inactive)	4% (inactive)	13% (inactive)
COc1cc(C=NNC(=O)C(NC(=O)c2ccccc2)c2n[nH]c(=O)c3ccccc23)ccc1OCC(N)=O (centres undefined)	14% (inactive)	9% (inactive)	3% (inactive)
COc1ccc(-c2noc(CCC(=O)N3CCN(c4cccc(C(F)(F)F)c4)CC3)n2)cc1	1% (inactive)	2% (inactive)	14% (inactive)
COc1ccc(-n2nc(C(=O)NCC(=O)N3CCN(Cc4ccccc4)CC3)c3ccccc3c2=O)c(OC)c1	0% (inactive)	18% (inactive)	15% (inactive)
O=[N+]([O-])c1ccc(Oc2cccc(Br)c2)c2ccncc12	13% (inactive)	2% (inactive)	0% (inactive)
COc1ccccc1-n1cc(C(=O)NCC(=O)N2CCN(Cc3ccccc3)CC2)c2ccccc2c1=O	0% (inactive)	14% (inactive)	15% (inactive)
CC(CCC(C)C)=NNC(=S)Nc1cc(S(=O)(=O)N2CCOCC2)ccc1N1CCOCC1	19% (inactive)	8% (inactive)	16% (inactive)
COc1ccc(N2CCN(C(=O)c3ccc(C(C)(C)C)cc3)CC2)cc1	16% (inactive)	57%	47%
Cc1nc(-c2ccc(S(=O)(=O)N3CCCN(CCc4ccccc4)CC3)s2)cs1	7% (inactive)	8% (inactive)	0% (inactive)
O=C(Cn1cnc2ccccc2c1=O)c1ccc(OC(F)F)cc1	5% (inactive)	7% (inactive)	8% (inactive)
O=C(NC(=S)Nc1sc2c(c1C(=O)O)CCCC2)c1ccccc1	34%	32%	43%
CC(=O)N1c2ccc(S(=O)(=O)N3CCC(C(=O)N4CCN(c5ccc(Cl)cc5)CC4)CC3)cc2CC1C (centres undefined)	3% (inactive)	32%	26% (inactive)
C/C(C=NNC(=O)Cn1nnc(N)n1)=C\c1ccc(C(C)C)cc1	0% (inactive)	2% (inactive)	0% (inactive)
CC(=O)c1ccc(N2CCN(C(=O)C3CCN(S(=O)(=O)c4ccc5c(c4)CC(C)N5C(C)=O)CC3)CC2)cc1 (centres undefined)	18% (inactive)	8% (inactive)	10% (inactive)
COc1ccc(-n2nc(C(=O)NCC(=O)N3CCN(c4cccc(Cl)c4)CC3)c3ccccc3c2=O)c(OC)c1	33%	52%	41%
COc1ccc(OC)c(-c2cc(C(=O)Nc3c(C)nn(Cc4ccccc4)c3C)no2)c1	15% (inactive)	3% (inactive)	0% (inactive)

Structure (SMILES)	inhibition [1]	inhibition [2]	inhibition [3]
Cc1cccc(N2CCN(C(=O)Cc3ccc(-n4c(=O)[nH]c5ccsc5c4=O)cc3)CC2)c1C	14% (inactive)	4% (inactive)	0% (inactive)
O=C(Cc1ccc([N+](=O)[O-])cc1)N1CCN(c2ccc([N+](=O)[O-])cc2)CC1	0% (inactive)	0% (inactive)	0% (inactive)
COc1cc(C2Oc3cc(C4Oc5cc(O)cc(O)c5C(=O)C4O)ccc3OC2CO)ccc1O (centres undefined)	10% (inactive)	14% (inactive)	19% (inactive)
O=C(c1ccc2n[nH]nc2c1)N1CCN(c2ccc(C(F)(F)F)cn2)CC1	40%	26% (inactive)	35%
COc1cc(/C=C2\SC(=O)N(CC(=O)Nc3cccc(C)c3)C2=O)ccc1OC(C)C(=O)O (centres undefined)	28% (inactive)	58%	37%
Cc1cccc(NC(=O)CN2C(=O)S/C(=C\c3cc(C)n(C)c3C)C2=O)c1	9% (inactive)	51%	40%
O=C(CN1C(=O)S/C(=C\c2ccc(C(=O)O)cc2)C1=O)Nc1ccccc1	7% (inactive)	8% (inactive)	8% (inactive)
CCN(CC)S(=O)(=O)c1ccc(N2CCOCC2)c(NC(=O)COc2ccc(C#N)cc2)c1	12% (inactive)	3% (inactive)	0% (inactive)
O=C(NCC1CCN(c2ccc(S(=O)(=O)N3CCOCC3)cc2)CC1)c1ccc(Cl)cc1	3% (inactive)	9% (inactive)	9% (inactive)
Cc1ccc(Oc2ccc3c(c2)C(=O)N(c2ccc(S(=O)(=O)Nc4nccs4)cc2)C3=O)cc1	14% (inactive)	9% (inactive)	6% (inactive)
CC(=O)c1ccc(N2CCN(C(=O)C3CCN(S(=O)(=O)c4ccc5c(c4)CC(C)N5C(=O)C4CC4)CC3)CC2)cc1 (centres undefined)	18% (inactive)	10% (inactive)	19% (inactive)
O=C(N1CCOCC1)n1nnc2ccccc21	103%	47%	54%
COc1ccc(N2CCN(C(=O)C3CCC(Cn4c(=S)[nH]c5ccccc5c4=O)CC3)CC2)cc1 (centres undefined)	16% (inactive)	47%	44%
O=C(O)c1cccc(N2C(=O)c3ccc(Oc4ccc(Cl)cc4)cc3C2=O)c1	25% (inactive)	7% (inactive)	11% (inactive)
Cc1cccc(NC(=O)CN2C(=O)S/C(=C\c3cccn3-c3cccc(C(=O)O)c3)C2=O)c1	17% (inactive)	66%	77%
Cc1ccc(NC(=O)Cn2c([N+](=O)[O-])cnc2C)cc1Cl	0% (inactive)	8% (inactive)	8% (inactive)
CCCCCCCCCC(=O)Nn1cnc2ccccc2c1=O	28% (inactive)	4% (inactive)	12% (inactive)
CON=Cc1ccc(N2CCN(C(=O)c3cccc(C(F)(F)F)c3)CC2)c([N+](=O)[O-])c1	14% (inactive)	14% (inactive)	14% (inactive)
O=C(O)c1ccc(CN2C(=O)c3ccc(Oc4ccc([N+](=O)[O-])cc4)cc3C2=O)cc1	6% (inactive)	7% (inactive)	4% (inactive)
Cc1nc([N+](=O)[O-])cn1CC(=O)Nc1ccc(F)c(Cl)c1	0% (inactive)	10% (inactive)	15% (inactive)
COc1ccc(N2CCN(C(=O)c3cc4c(s3)-c3ccccc3S(=O)(=O)C4)CC2)cc1	25% (inactive)	79%	74%
CS(=O)(=O)Nc1ccc(N2CCN(c3ccc(C(F)(F)F)cn3)CC2)nc1	0% (inactive)	8% (inactive)	1% (inactive)
O=C(COc1ccc(Cl)cc1Cl)N1CCN(C/C=C/c2ccccc2)CC1	0% (inactive)	2% (inactive)	0% (inactive)
COc1ccc(/C=C2\SC(=O)N(CC(=O)Nc3ccc(F)cc3)C2=O)cc1O	15% (inactive)	16% (inactive)	24% (inactive)
